Results on 33 compounds are retold here after patent publication US8969565B2, “Imidazo[1,2-b]pyridazine-based compounds, compositions comprising them, and methods of their use” (Lexicon Pharmaceuticals, Inc., priority 2012, dated 2015).

In the assay the target is T1, AAK1 (Homo sapiens, UniProt Q2M2I8).
T1 construct: HA; expressed in transfected cells; host or cells: HEK293F
Nature of the assay: HEK281 cell-based assay (phospho-mu2 Western blot in transfected HEK293F cells). The settings on record: 3 hours incubation, read-out: CBA IC50. The procedure:
HEK293F cells were cultured in media containing DMEM (Gibco, cat. #11965), 10% FBS (SAFC Biosciences, cat. #12103C), 1×GPS (glutamine, penicillin and streptomycin). On day one, cells were plated on a 10 cm dish so that they are ˜80% confluent at time of transfection. Roughly 12 million cells were in a 10 cm dish at time of transfection. On day two, each dish was transfected with 48 ug DNA and 144 ul Lipofectamine 2000 (Invitrogen, cat.#11668-019). The DNA was comprised of a mixture (per 10 cm dish) containing 3 ug AAK1/HA/pIRES (full length human, NCBI accession no. NP_055726.2), 45 μg Flag/AP2MI/pcDNA (full length human), and 1.5 ml OPTI-MEM. The Lipofectamine 2000 is made up of a mixture (per 10 cm dish) containing 144 μl Lipofectamine 2000 and 1.5 ml OPTI-MEM. Each mixture was transferred to individual 15 ml tubes and incubated at RT for 5 minutes, and then the two mixes were combined and incubated at RT for 20 minutes. Growth media was then aspirated from each 10 cm plate and replaced with 10 ml of DMEM+10% FBS (no GPS). Finally, 3 ml DNA/Lipofectamine mix was added to each 10 cm dish and mix gently followed by incubate of plate overnight at 37° C. and 5% CO2.
On day three, compounds were diluted in 100% DMSO at 1000× final concentration, followed by 3-fold serial dilutions for a total of 5 concentrations tested. Four compounds were tested per 10 cm dish. One ul of each compound dilution was then pipetted into a deep-well, 96-well plate, followed by addition of 500 μl DMEM+0.5% FBS into each well for a 2× final concentration of each compound. Cells were resuspended in a 10 cm dish by simple pipetting (HEK293 cells come off the plate that easy at this point) and then transferred to a 50 ml conical tube and pelleted by centrifugation at 1000 rpm for 5 min. Cell pellets were then resuspended in 2.75 ml DMEM+0.5% FBS per 10 cm dish and 100 μl of cell suspension transferred into each well of 96-well TC plate. Finally, 100 μl of 2× compound diluted in DMEM+0.5% FBS was then added into wells containing cell suspension for a 1× final concentration. Plates were then incubated at 37° C. and 5% CO2 for 3 hours followed by transferring of cell suspensions from each well into 12-tube PCR strips. The PCR strips were spun in a tip rack at 1000 rpm for 5 minutes to pellet cells and media was then removed by pipetting without disturbing the cell pellet.
To prepare for Western Blot analysis, cell pellets were resuspend in 40 ul 1×LDS-PAGE sample buffer (Invitrogen, cat.#NP0008)+2× Halt phophatase and protease inhibitor cocktail (Thermo Scientific, cat.#1861284), followed by sonicating each with microtip sonicator set at 5 for 8-10 seconds. Five ul of 10× NuPage Sample Reducing Agent (with 50 mM DTT) was to each sample followed by heat denaturing at 70 C for 10 min on PCR machine. A total of 10 μl per sample was loaded into each lane of a 4-20% Tris-Glycine Criterion 26-well gel (Biorad, cat.#345-0034) for the phospho-mu2 blot and 10 μl per lane in a 4-12% Bis-Tris (+MES buffer) NuPAGE 26-well gel (Invitrogen, cat.#WG1403BX10) for the mu2 blot. For controls, 2 ng of phospho-mu2 or 20 ng mu2/Flag proteins were loaded in the last well of each gel. After SDS-PAGE, samples on each gel were transferred to PVDF membrane using an iBlot and membranes were blocked for one hour in TBST+5% milk, followed by wash 3× for 5-10 min with TBST. Criterion gels were probed with rabbit anti-phospho-mu2 (1:5000; a rabbit polyclonal antibody produced by New England Peptide and affinity purified at Lexicon) in TBST+5% BSA, whereas, NuPAGE gels were probed with mouse anti-Flag (1:500; Sigma, cat.#F1804) in TBST+5% milk, and these primary antibodies were incubated overnight at 4° C. on a rocker.

T1 sequence (Q2M2I8 1-863 isoform Q2M2I8-2): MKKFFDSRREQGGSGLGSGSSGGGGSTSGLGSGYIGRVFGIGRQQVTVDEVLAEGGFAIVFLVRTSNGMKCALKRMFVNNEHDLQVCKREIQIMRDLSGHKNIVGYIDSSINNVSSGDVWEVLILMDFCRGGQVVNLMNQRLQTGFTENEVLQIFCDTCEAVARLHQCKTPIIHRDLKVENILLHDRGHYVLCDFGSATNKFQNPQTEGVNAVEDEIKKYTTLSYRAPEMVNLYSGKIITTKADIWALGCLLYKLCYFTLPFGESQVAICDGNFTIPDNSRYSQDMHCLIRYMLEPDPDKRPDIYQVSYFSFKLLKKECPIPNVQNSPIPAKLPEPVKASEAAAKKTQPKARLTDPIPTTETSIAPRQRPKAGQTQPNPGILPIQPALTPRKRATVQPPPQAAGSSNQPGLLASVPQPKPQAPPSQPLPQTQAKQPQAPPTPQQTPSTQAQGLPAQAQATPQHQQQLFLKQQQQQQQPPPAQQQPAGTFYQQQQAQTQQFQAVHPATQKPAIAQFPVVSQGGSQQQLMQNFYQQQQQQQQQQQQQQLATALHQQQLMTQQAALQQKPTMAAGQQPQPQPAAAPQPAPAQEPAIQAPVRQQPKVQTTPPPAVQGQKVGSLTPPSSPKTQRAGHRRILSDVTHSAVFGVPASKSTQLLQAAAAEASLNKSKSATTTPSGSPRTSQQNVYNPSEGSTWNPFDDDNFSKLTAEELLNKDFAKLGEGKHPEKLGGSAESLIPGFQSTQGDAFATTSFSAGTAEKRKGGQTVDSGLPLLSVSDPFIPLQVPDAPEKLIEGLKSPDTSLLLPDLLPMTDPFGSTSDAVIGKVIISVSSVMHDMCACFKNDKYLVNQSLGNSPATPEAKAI

For `CCC(C)CNc1ccc2ncc(-c3ccc(CN)cc3)n2n1` (stereo not drawn) [3-(4-(aminomethyl)phenyl)-N-(2-methylbutyl)imidazo[1,2-b]pyridazin-6-amine], the IC50 was not above 1 µM.
With `NCc1ccc(-c2cnc3ccc(NCCOc4ccccc4)nn23)cc1` [3-(4-(aminomethyl)phenyl)-N-(2-phenoxyethyl)imidazo[1,2-b]pyridazin-6-amine] the figure was not above 1 µM; with `CC(C)(C)CCNc1ccc2ncc(-c3ccc(CN)cc3)n2n1` [3-(4-(aminomethyl)phenyl)-N-(3,3-dimethylbutyl)imidazo[1,2-b]pyridazin-6-amine], not above 0.1 µM; with `NCc1ccc(-c2cnc3ccc(NCCCc4ccccc4F)nn23)cc1` [3-(4-(aminomethyl)phenyl)-N-(3-(2-fluorophenyl)propyl)imidazo[1,2-b]pyridazin-6-amine], not above 0.1 µM.
With `NCc1ccc(-c2cnc3ccc(NCCCc4cccc(F)c4)nn23)cc1` [3-(4-(aminomethyl)phenyl)-N-(3-(3-fluorophenyl)propyl)imidazo[1,2-b]pyridazin-6-amine] the figure was not above 0.1 µM; with `NCc1ccc(-c2cnc3ccc(NCCCc4ccc(F)cc4)nn23)cc1` [3-(4-(aminomethyl)phenyl)-N-(3-(4-fluorophenyl)propyl)imidazo[1,2-b]pyridazin-6-amine], not above 0.1 µM.
With `NCc1ccc(-c2cnc3ccc(NCCCOC4CCCC4)nn23)cc1` [3-(4-(aminomethyl)phenyl)-N-(3-(cyclopentyloxy)propyl)imidazo[1,2-b]pyridazin-6-amine] the figure was not above 0.1 µM.
Consider `CC(C)(C)OCCCNc1ccc2ncc(-c3ccc(CN)cc3)n2n1` [3-(4-(aminomethyl)phenyl)-N-(3-(tert-butoxy)propyl)imidazo[1,2-b]pyridazin-6-amine], for which the IC50 was not above 0.1 µM.
Consider `NCc1ccc(-c2cnc3ccc(NCCc4cccc(C(F)(F)F)c4)nn23)cc1` [3-(4-(aminomethyl)phenyl)-N-(3-(trifluoromethyl)phenethyl)imidazo[1,2-b]pyridazin-6-amine], for which the IC50 was not above 0.1 µM.
As to `NCc1ccc(-c2cnc3ccc(NCCc4cccc(F)c4)nn23)cc1` [3-(4-(aminomethyl)phenyl)-N-(3-fluorophenethyl)imidazo[1,2-b]pyridazin-6-amine], the IC50 was not above 0.1 µM.
Then `NCc1ccc(-c2cnc3ccc(NCCCF)nn23)cc1` [3-(4-(aminomethyl)phenyl)-N-(3-fluoropropyl)imidazo[1,2-b]pyridazin-6-amine], with not above 1 µM.
Then `COc1cccc(CCNc2ccc3ncc(-c4ccc(CN)cc4)n3n2)c1` [3-(4-(aminomethyl)phenyl)-N-(3-methoxyphenethyl)imidazo[1,2-b]pyridazin-6-amine], with not above 0.1 µM.
Then `NCc1ccc(-c2cnc3ccc(NCCCCF)nn23)cc1` [3-(4-(aminomethyl)phenyl)-N-(4-fluorobutyl)imidazo[1,2-b]pyridazin-6-amine], with not above 0.1 µM; and `NCc1ccc(-c2cnc3ccc(NCCc4ccc(F)cc4)nn23)cc1` [3-(4-(aminomethyl)phenyl)-N-(4-fluorophenethyl)imidazo[1,2-b]pyridazin-6-amine], with not above 1 µM; and `COc1ccc(CCNc2ccc3ncc(-c4ccc(CN)cc4)n3n2)cc1` [3-(4-(aminomethyl)phenyl)-N-(4-methoxyphenethyl)imidazo[1,2-b]pyridazin-6-amine], with not above 0.1 µM.
For `NCc1ccc(-c2cnc3ccc(NCCCCc4ccccc4)nn23)cc1` [3-(4-(aminomethyl)phenyl)-N-(4-phenylbutyl)imidazo[1,2-b]pyridazin-6-amine], the IC50 is not above 0.1 µM.
With `NCc1ccc(-c2cnc3ccc(NCCCCCF)nn23)cc1` [3-(4-(aminomethyl)phenyl)-N-(5-fluoropentyl)imidazo[1,2-b]pyridazin-6-amine] the figure was not above 1 µM.
Then `NCc1ccc(-c2cnc3ccc(NCC4CCOC4)nn23)cc1` (stereo not drawn) [3-(4-(aminomethyl)phenyl)-N-((tetrahydrofuran-3-yl)methyl)imidazo[1,2-b]pyridazin-6-amine], with not above 1 µM.
Then `NCc1ccc(-c2cnc3ccc(NCC4CCC4)nn23)cc1` [3-(4-(aminomethyl)phenyl)-N-(cyclobutylmethyl)imidazo[1,2-b]pyridazin-6-amine], with not above 1 µM; and `NCc1ccc(-c2cnc3ccc(NCC4CCCC4)nn23)cc1` [3-(4-(aminomethyl)phenyl)-N-(cyclopentylmethyl)imidazo[1,2-b]pyridazin-6-amine], with not above 1 µM.
Turning to `NCc1ccc(-c2cnc3ccc(NCC4CC4)nn23)cc1` [3-(4-(aminomethyl)phenyl)-N-(cyclopropylmethyl)imidazo[1,2-b]pyridazin-6-amine], the IC50 is not above 1 µM.
Then `CC(C)CNc1ccc2ncc(-c3ccc(CN)cc3)n2n1` [3-(4-(aminomethyl)phenyl)-N-isobutylimidazo[1,2-b]pyridazin-6-amine], with not above 1 µM.
With `CC(C)CCNc1ccc2ncc(-c3ccc(CN)cc3)n2n1` [3-(4-(aminomethyl)phenyl)-N-isopentylimidazo[1,2-b]pyridazin-6-amine] the figure was not above 1 µM; with `CC(C)(C)CNc1ccc2ncc(-c3ccc(CN)cc3)n2n1` [3-(4-(aminomethyl)phenyl)-N-neopentylimidazo[1,2-b]pyridazin-6-amine], not above 0.1 µM; with `CCCCCNc1ccc2ncc(-c3ccc(CN)cc3)n2n1` [3-(4-(aminomethyl)phenyl)-N-pentylimidazo[1,2-b]pyridazin-6-amine], not above 1 µM.
Then `NCc1ccc(-c2cnc3ccc(NCCc4ccccc4)nn23)cc1` [3-(4-(aminomethyl)phenyl)-N-phenethylimidazo[1,2-b]pyridazin-6-amine], with not above 1 µM; and `CCCNc1ccc2ncc(-c3ccc(CN)cc3)n2n1` [3-(4-(aminomethyl)phenyl)-N-propylimidazo[1,2-b]pyridazin-6-amine], with not above 1 µM.
`CC(C)OC(=O)N1CCN(c2ccc3ncc(-c4ccccc4)n3n2)CC1` [4-(3-Phenyl-imidazo[1,2-b]pyridazin-6-yl)-piperazine-1-carboxylic acid isopropyl ester]: the IC50 is not above 0.1 µM.
Then `CN(CCNc1ccc2ncc(-c3ccc(C(N)=O)cc3)n2n1)C(=O)CC(C)(C)C` [4-(6-((2-(N,3,3-trimethylbutanamido)ethyl)amino)imidazo[1,2-b]pyridazin-3-yl)benzamide], with not above 0.1 µM.
Then `CCN(CC)CCNC(=O)c1ccc(-c2cnc3ccc(NCCOC(C)(C)C)nn23)cc1` [4-(6-((2-(tert-butoxy)ethyl)amino)imidazo[1,2-b]pyridazin-3-yl)-N-(2-(diethylamino)ethyl)benzamide], with not above 0.1 µM; and `CNC(=O)c1ccc(-c2cnc3ccc(NCCOC(C)(C)C)nn23)cc1` [4-(6-((2-(tert-butoxy)ethyl)amino)imidazo[1,2-b]pyridazin-3-yl)-N-methylbenzamide], with not above 0.1 µM.
For `NC(=O)c1ccc(-c2cnc3ccc(NCCc4ccccc4OC(F)(F)F)nn23)cc1` [4-(6-((2-(trifluoromethoxy)phenethyl)amino)imidazo[1,2-b]pyridazin-3-yl)benzamide], the IC50 was not above 0.01 µM.
In the case of `CCOc1ccccc1CCNc1ccc2ncc(-c3ccc(C(=O)NC)cc3)n2n1` [4-(6-((2-ethoxyphenethyl)amino)imidazo[1,2-b]pyridazin-3-yl)-N-methylbenzamide], the IC50 was not above 0.01 µM.
